Reference: ChEMBL document CHEMBL1134256, “Anticancer activity of synthetic analogues of the phorboxazoles” (Bioorg Med Chem Lett, 2001)

Columns and labels:
BT-20 [1] = assay: Effect on proliferation of human breast cancer cell line BT-20 by MTT assay method; format: functional, cell-based
Candida albicans [2] = assay: In vitro growth inhibitory concentration for antifungal activity against Candida albicans; format: functional
NALM-6 [3] = assay: Effect on proliferation of human B-lineage acute lymphoblastic leukemia cell line NALM-6 by MTT assay method; format: functional, cell-based
[4] = test system: Saccharomyces pastorianus; assay: In vitro growth inhibitory concentration for antifungal activity against Saccharomyces carlsbergensis; format: functional
U373 MG [5] = assay: Effect on proliferation of human brain tumor (glioblastoma) cell line U373 by MTT assay method; format: functional, cell-based, U-373MG ATCC
BT-20 [6] = assay: In vitro anticlonogenic effect on human breast cancer cell line BT-20 at 10 nM concentration; format: functional
BT-20 [7] = assay: In vitro anticlonogenic effect on human breast cancer cell line BT-20 at 1 nM concentration; format: functional
BT-20 [8] = assay: In vitro anticlonogenic effect on human breast cancer cell line BT-20 at 10 nM concentration,; format: functional
BT-20 [9] = assay: In vitro anticlonogenic effect on human breast cancer cell line BT-20 at 100 nM concentration; format: functional
NALM-6 [10] = assay: In vitro anticlonogenic effect on human B-lineage acute lymphoblastic leukemia cell line NALM-6 at 10 nM concentration; format: functional
NALM-6 [11] = assay: In vitro anticlonogenic effect on human B-lineage acute lymphoblastic leukemia cell line NALM-6 at 100 nM concentration; format: functional
NALM-6 [12] = assay: In vitro anticlonogenic effect on human B-lineage acute lymphoblastic leukemia cell line NALM-6 at 1 nM concentration; format: functional
U373 MG [13] = assay: In vitro anticlonogenic effect on human brain tumor (glioblastoma) cell line U373 at 100 nM concentration; format: functional, U-373MG ATCC
U373 MG [14] = assay: In vitro anticlonogenic effect on human brain tumor (glioblastoma) cell line U373 at 10 nM concentration; format: functional, U-373MG ATCC
BT-20 [15] = assay: In vitro anticlonogenic effect on human breast cancer cell line BT-20 100 nM concentration; format: functional
BT-20 [16] = assay: In vitro anticlonogenic effect on human breast cancer cell line BT-20 10 nM concentration; format: functional
BT-20 [17] = assay: In vitro anticlonogenic effect on human breast cancer cell line BT-20 1 nM concentration; format: functional
[18] = test system: Saccharomyces pastorianus; assay: In vitro growth inhibitory concentration against Saccharomyces carlsbergensis; format: functional
U373 MG [19] = assay: In vitro anticlonogenic effect on human brain tumor (glioblastoma) cell line U373 10 nM concentration e; format: functional, U-373MG ATCC
Candida albicans [20] = assay: In vitro growth inhibitory concentration against Candida albicans; format: functional
U373 MG [21] = assay: In vitro anticlonogenic effect on human brain tumor (glioblastoma) cell line U373 100 nM concentration; format: functional, U-373MG ATCC

| Structure (SMILES) | IC50 (BT-20 [1]) | GI50 (Candida albicans [2]) | IC50 (NALM-6 [3]) | GI50 [4] | IC50 (U373 MG [5]) | Mean no. colonies (NALM-6 [10]) | Mean no. colonies (NALM-6 [11]) | Mean no. colonies (NALM-6 [12]) | further results |
| --- | --- | --- | --- | --- | --- | --- | --- | --- | --- |
| COC(=O)/C=C/C[C@H]1O[C@@H](/C(C)=C/c2coc(C[C@]3(O)C[C@H](OC)C[C@H]([C@H](O)/C=C(C)/C=C/[C@@H](C/C=C/Br)OC)O3)n2)[C@H](C)[C@@H](OC(C)=O)[C@H]1C | > 2000 nM | 1.6 nM | > 2000 nM | 1.6 nM | > 2000 nM | – | – | – | – |
| C=C1C[C@@H]2C[C@@H]3C[C@@H](O)C[C@@H](O3)c3coc(n3)/C=C/C[C@H]3O[C@@H](/C(C)=C/c4coc(C[C@]5(O)C[C@H](OC)C[C@H](CO)O5)n4)[C@H](C)[C@@H](OC(=O)/C=C\C[C@@H](C1)O2)[C@H]3C | > 2000 nM | 1.6 nM | > 2000 nM | 1.6 nM | > 2000 nM | – | – | – | – |
| C=C1C[C@@H]2C[C@@H]3C[C@@H](O)C[C@@H](O3)c3coc(n3)/C=C/C[C@H]3O[C@@H](/C(C)=C/c4coc(C[C@]5(O)C[C@H](OC)C[C@H]([C@H](O)/C=C(C)/C=C/[C@@H](C/C=C/Br)OC)O5)n4)[C@H](C)[C@@H](OC(=O)/C=C\C[C@@H](C1)O2)[C@H]3C | 3.4 nM | 1.6 nM | 1.7 nM | 1.6 nM | 6.7 nM | 0 10e4*cells | 0 10e4*cells | 270 10e4*cells | Mean no. colonies (BT-20 [6]): 0 10e4*cells; Mean no. colonies (BT-20 [7]): 1070 10e4*cells; inhibition at 0.01 µM (BT-20 [8]): > 99.9%; Mean no. colonies (BT-20 [9]): 0 10e4*cells; inhibition at 0.1 µM (BT-20 [9]): > 99.9%; inhibition at 0.01 µM (NALM-6 [10]): > 99.9%; inhibition at 0.1 µM (NALM-6 [11]): > 99.9%; Mean no. colonies (U373 MG [13]): 0 10e4*cells; inhibition at 0.1 µM (U373 MG [13]): > 99.9%; Mean no. colonies (U373 MG [14]): 378 10e4*cells |
| C#CC[C@H](/C=C/C(C)=C/[C@@H](O)[C@H]1C[C@@H](OC)C[C@@](O)(Cc2nc(/C=C(\C)[C@@H]3O[C@@H]4C/C=C/c5nc(co5)[C@H]5C[C@H](O)C[C@@H](C[C@H]6CC(=C)C[C@H](C/C=C\C(=O)O[C@@H]([C@H]4C)[C@H]3C)O6)O5)co2)O1)OC | 12.6 nM | – | 4.8 nM | – | 27.4 nM | 293 10e4*cells | 0 10e4*cells | 2116 10e4*cells | Mean no. colonies (BT-20 [15]): 0 10e4*cells; Mean no. colonies (BT-20 [16]): 1062 10e4*cells; Mean no. colonies (BT-20 [17]): 1540 10e4*cells; GI50 [18]: 1.6 nM; Mean no. colonies (U373 MG [19]): 586 10e4*cells; GI50 (Candida albicans [20]): 1.6 nM; Mean no. colonies (U373 MG [21]): 144 10e4*cells |
| C=C1C[C@@H]2C[C@@H]3C[C@@H](O)C[C@@H](O3)c3coc(n3)/C=C/C[C@H]3O[C@@H](/C(C)=C/[C@H](CO)NC(=O)C[C@]4(O)C[C@H](OC)C[C@H]([C@H](O)/C=C(C)/C=C/[C@@H](C/C=C/Br)OC)O4)[C@H](C)[C@@H](OC(=O)/C=C\C[C@@H](C1)O2)[C@H]3C | > 2000 nM | 1.6 nM | > 2000 nM | 1.6 nM | > 2000 nM | – | – | – | – |
| C=C1C[C@@H]2C[C@@H]3C[C@@H](O)C[C@@H](O3)c3coc(n3)/C=C/C[C@H]3O[C@@H](/C(C)=C/c4coc(C[C@]5(OC)C[C@H](OC)C[C@H]([C@H](O)/C=C(C)/C=C/[C@@H](C/C=C/Br)OC)O5)n4)[C@H](C)[C@@H](OC(=O)/C=C\C[C@@H](C1)O2)[C@H]3C | 11.3 nM | 1.6 nM | 5.2 nM | 1.6 nM | 29.2 nM | 422 10e4*cells | 0 10e4*cells | 1760 10e4*cells | Mean no. colonies (BT-20 [6]): 1430 10e4*cells; Mean no. colonies (BT-20 [7]): 1824 10e4*cells; Mean no. colonies (BT-20 [9]): 0 10e4*cells; Mean no. colonies (U373 MG [13]): 0 10e4*cells; Mean no. colonies (U373 MG [14]): 578 10e4*cells |
| COC(=O)C[C@]1(O)C[C@H](OC)C[C@H]([C@H](O)/C=C(C)/C=C/[C@@H](C/C=C/Br)OC)O1 | > 2000 nM | 1.6 nM | > 2000 nM | 1.6 nM | > 2000 nM | – | – | – | – |
